Numbered stars: 1 amine (or outer) side, 2 acyl side, 3 side chain; on linkers, the order of the positions; unused ones are H or OH. Square brackets hold non-standard residues; d marks the D form. Peptide text beside a SMILES is read from it. γGlu = O=C(O)[C@H](CCC(=O)[*:2])N[*:1]; Hyp = O=C(O)[C@@H]1C[C@@H](O)CN1; Nspe = C[C@H](NCC(=O)O)c1ccccc1; Chg = N[C@H](C(=O)O)C1CCCCC1; Nlys = NCCCCNCC(=O)O
Experiments:
Assay type in all cases: functional
PC-3 = experiment: Cytotoxicity against human PC3 cells assessed as induction of cell death after 48 hrs by MTS assay; conditions: PC-3, 48 h, read-out: LC50 (the source's name)
LNCaP [1] = experiment: Selectivity ratio of LC50 for human PC3 cells to LC50 for human LNCaP cells
LNCaP [2] = experiment: Cytotoxicity against human LNCAP cells assessed as induction of cell death after 48 hrs by MTS assay; conditions: read-out: LC50 (the source's name)

| Structure (SMILES) | CC50 (PC-3) | RatioLC50 (LNCaP [1]) | CC50 (LNCaP [2]) |
| --- | --- | --- | --- |
| C[C@@H](c1ccccc1)N(CC(N)=O)C(=O)CN(C(=O)CN(CCCCN)C(=O)CN(C(=O)CN(C(=O)CN(CCCCN)C(=O)CN(C(=O)CN(C(=O)CN(CCCCN)C(=O)CN(C(=O)CN(C(=O)CN(CCCCN)C(=O)CC[C@H](N)C(=O)O)[C@@H](C)c1ccccc1)[C@@H](C)c1ccccc1)[C@@H](C)c1ccccc1)[C@@H](C)c1ccccc1)[C@@H](C)c1ccccc1)[C@@H](C)c1ccccc1)[C@@H](C)c1ccccc1 | 12 µM | 1.3 | 9.5 µM |
| CC(=O)N[C@@H](CCC(=O)N[C@@H](CCC(=O)N[C@@H](Cc1cnc[nH]1)C(=O)N[C@@H](CO)C(=O)N[C@@H](CO)C(=O)N[C@@H](CCCCN)C(=O)N[C@@H](CC(C)C)C(=O)N[C@@H](CCC(N)=O)C(=O)N(CCCCN)CC(=O)N(CC(=O)N(CC(=O)N(CCCCN)CC(=O)N(CC(=O)N(CC(=O)N(CCCCN)CC(=O)N(CC(=O)N(CC(=O)N(CCCCN)CC(=O)N(CC(=O)N(CC(N)=O)[C@@H](C)c1ccccc1)[C@@H](C)c1ccccc1)[C@@H](C)c1ccccc1)[C@@H](C)c1ccccc1)[C@@H](C)c1ccccc1)[C@@H](C)c1ccccc1)[C@@H](C)c1ccccc1)[C@@H](C)c1ccccc1)C(=O)O)C(=O)O (Ac-[γGlu][γGlu]HSSKLQ[Nlys][Nspe][Nspe][Nlys][Nspe][Nspe][Nlys][Nspe][Nspe][Nlys][Nspe][Nspe]-NH2) | 28 µM | 1.6 | 18 µM |
| CC(=O)N[C@@H](CCC(=O)N[C@@H](CCC(=O)N[C@@H](CCC(=O)N[C@@H](Cc1cnc[nH]1)C(=O)N[C@@H](CO)C(=O)N[C@@H](CO)C(=O)N[C@@H](CCCCN)C(=O)N[C@@H](CC(C)C)C(=O)N[C@@H](CCC(N)=O)C(=O)N(CCCCN)CC(=O)N(CC(=O)N(CC(=O)N(CCCCN)CC(=O)N(CC(=O)N(CC(=O)N(CCCCN)CC(=O)N(CC(=O)N(CC(=O)N(CCCCN)CC(=O)N(CC(=O)N(CC(N)=O)[C@@H](C)c1ccccc1)[C@@H](C)c1ccccc1)[C@@H](C)c1ccccc1)[C@@H](C)c1ccccc1)[C@@H](C)c1ccccc1)[C@@H](C)c1ccccc1)[C@@H](C)c1ccccc1)[C@@H](C)c1ccccc1)C(=O)O)C(=O)O)C(=O)O (Ac-[γGlu][γGlu][γGlu]HSSKLQ[Nlys][Nspe][Nspe][Nlys][Nspe][Nspe][Nlys][Nspe][Nspe][Nlys][Nspe][Nspe]-NH2) | 37 µM | 1.2 | 31 µM |
| CC(=O)N[C@@H](CCC(=O)N[C@@H](CCC(=O)N[C@@H](CCC(=O)N[C@@H](CCC(=O)N[C@@H](Cc1cnc[nH]1)C(=O)N[C@@H](CO)C(=O)N[C@@H](CO)C(=O)N[C@@H](CCCCN)C(=O)N[C@@H](CC(C)C)C(=O)N[C@@H](CCC(N)=O)C(=O)N(CCCCN)CC(=O)N(CC(=O)N(CC(=O)N(CCCCN)CC(=O)N(CC(=O)N(CC(=O)N(CCCCN)CC(=O)N(CC(=O)N(CC(=O)N(CCCCN)CC(=O)N(CC(=O)N(CC(N)=O)[C@@H](C)c1ccccc1)[C@@H](C)c1ccccc1)[C@@H](C)c1ccccc1)[C@@H](C)c1ccccc1)[C@@H](C)c1ccccc1)[C@@H](C)c1ccccc1)[C@@H](C)c1ccccc1)[C@@H](C)c1ccccc1)C(=O)O)C(=O)O)C(=O)O)C(=O)O (Ac-[γGlu][γGlu][γGlu][γGlu]HSSKLQ[Nlys][Nspe][Nspe][Nlys][Nspe][Nspe][Nlys][Nspe][Nspe][Nlys][Nspe][Nspe]-NH2) | 47 µM | 1.3 | 35 µM |
| CC(C)C[C@H](NC(=O)[C@H](CCCCN)NC(=O)[C@H](CO)NC(=O)[C@H](CO)NC(=O)[C@@H](N)Cc1cnc[nH]1)C(=O)N[C@@H](CCC(N)=O)C(=O)N(CCCCN)CC(=O)N(CC(=O)N(CC(=O)N(CCCCN)CC(=O)N(CC(=O)N(CC(=O)N(CCCCN)CC(=O)N(CC(=O)N(CC(=O)N(CCCCN)CC(=O)N(CC(=O)N(CC(N)=O)[C@@H](C)c1ccccc1)[C@@H](C)c1ccccc1)[C@@H](C)c1ccccc1)[C@@H](C)c1ccccc1)[C@@H](C)c1ccccc1)[C@@H](C)c1ccccc1)[C@@H](C)c1ccccc1)[C@@H](C)c1ccccc1 (H-HSSKLQ[Nlys][Nspe][Nspe][Nlys][Nspe][Nspe][Nlys][Nspe][Nspe][Nlys][Nspe][Nspe]-NH2) | 19.6 µM | 2.1 | 9.2 µM |
| C[C@@H](c1ccccc1)N(CC(N)=O)C(=O)CN(C(=O)CN(CCCCN)C(=O)CN(C(=O)CN(C(=O)CN(CCCCN)C(=O)CN(C(=O)CN(C(=O)CN(CCCCN)C(=O)CN(C(=O)CN(C(=O)CN(CCCCN)C(=O)[C@@H]1CCCN1C(=O)[C@H](CO)NC(=O)[C@H](CO)NC(=O)[C@H](CCC(N)=O)NC(=O)[C@@H](NC(=O)[C@H](CO)NC(=O)[C@H](CO)NC(=O)[C@@H]1C[C@@H](O)CN1)C1CCCCC1)[C@@H](C)c1ccccc1)[C@@H](C)c1ccccc1)[C@@H](C)c1ccccc1)[C@@H](C)c1ccccc1)[C@@H](C)c1ccccc1)[C@@H](C)c1ccccc1)[C@@H](C)c1ccccc1 (H-[Hyp]SS[Chg]QSSP[Nlys][Nspe][Nspe][Nlys][Nspe][Nspe][Nlys][Nspe][Nspe][Nlys][Nspe][Nspe]-NH2) | 35 µM | 2.1 | 17 µM |
| CC(C)C[C@H](NC(=O)[C@H](CCCCN)NC(=O)[C@H](CO)NC(=O)[C@H](CO)NC(=O)[C@H](Cc1cnc[nH]1)NC(=O)CNCCCCN)C(=O)N[C@@H](CCC(N)=O)C(=O)N(CC(=O)N(CC(=O)N(CCCCN)CC(=O)N(CC(=O)N(CC(=O)N(CCCCN)CC(=O)N(CC(=O)N(CC(=O)N(CCCCN)CC(=O)N(CC(=O)N(CC(N)=O)[C@@H](C)c1ccccc1)[C@@H](C)c1ccccc1)[C@@H](C)c1ccccc1)[C@@H](C)c1ccccc1)[C@@H](C)c1ccccc1)[C@@H](C)c1ccccc1)[C@@H](C)c1ccccc1)[C@@H](C)c1ccccc1 (H-[Nlys]HSSKLQ[Nspe][Nspe][Nlys][Nspe][Nspe][Nlys][Nspe][Nspe][Nlys][Nspe][Nspe]-NH2) | 16.9 µM | 3 | 5.7 µM |
| CC(C)C[C@H](NC(=O)[C@H](CCCCN)NC(=O)[C@H](CO)NC(=O)[C@H](CO)NC(=O)[C@H](Cc1cnc[nH]1)NC(=O)CN(CCCCN)C(=O)CN(C(=O)CN(C(=O)CNCCCCN)[C@@H](C)c1ccccc1)[C@@H](C)c1ccccc1)C(=O)N[C@@H](CCC(N)=O)C(=O)N(CC(=O)N(CC(=O)N(CCCCN)CC(=O)N(CC(=O)N(CC(=O)N(CCCCN)CC(=O)N(CC(=O)N(CC(=O)N(CCCCN)CC(N)=O)[C@@H](C)c1ccccc1)[C@@H](C)c1ccccc1)[C@@H](C)c1ccccc1)[C@@H](C)c1ccccc1)[C@@H](C)c1ccccc1)[C@@H](C)c1ccccc1 (H-[Nlys][Nspe][Nspe][Nlys]HSSKLQ[Nspe][Nspe][Nlys][Nspe][Nspe][Nlys][Nspe][Nspe][Nlys]-NH2) | 19.1 µM | 3.2 | 5.9 µM |
| C[C@@H](c1ccccc1)N(CC(N)=O)C(=O)CN(C(=O)CN(CCCCN)C(=O)CN(C(=O)CN(C(=O)CN(CCCCN)C(=O)CN(C(=O)CN(C(=O)CN(CCCCN)C(=O)CN(C(=O)CN(C(=O)CNCCCCN)[C@@H](C)c1ccccc1)[C@@H](C)c1ccccc1)[C@@H](C)c1ccccc1)[C@@H](C)c1ccccc1)[C@@H](C)c1ccccc1)[C@@H](C)c1ccccc1)[C@@H](C)c1ccccc1 (H-[Nlys][Nspe][Nspe][Nlys][Nspe][Nspe][Nlys][Nspe][Nspe][Nlys][Nspe][Nspe]-NH2) | 8.5 µM | 1.7 | 5 µM |
| CC(C)C[C@H](NC(=O)[C@H](CCCCN)NC(=O)[C@H](CO)NC(=O)[C@H](CO)NC(=O)[C@H](Cc1cnc[nH]1)NC(=O)CC[C@H](NC(=O)CC[C@H](NC(=O)CC[C@H](NC(=O)CC[C@H](N)C(=O)O)C(=O)O)C(=O)O)C(=O)O)C(=O)N[C@@H](CCC(N)=O)C(=O)N(CCCCN)CC(=O)N(CC(=O)N(CC(=O)N(CCCCN)CC(=O)N(CC(=O)N(CC(=O)N(CCCCN)CC(=O)N(CC(=O)N(CC(=O)N(CCCCN)CC(=O)N(CC(=O)N(CC(N)=O)[C@@H](C)c1ccccc1)[C@@H](C)c1ccccc1)[C@@H](C)c1ccccc1)[C@@H](C)c1ccccc1)[C@@H](C)c1ccccc1)[C@@H](C)c1ccccc1)[C@@H](C)c1ccccc1)[C@@H](C)c1ccccc1 ({γGlu-γGlu-γGlu-γGlu}-HSSKLQ[Nlys][Nspe][Nspe][Nlys][Nspe][Nspe][Nlys][Nspe][Nspe][Nlys][Nspe][Nspe]-NH2) | 36 µM | 2.1 | 17 µM |
| CC(C)C[C@H](NC(=O)[C@H](CCCCN)NC(=O)[C@H](CO)NC(=O)[C@H](CO)NC(=O)[C@H](Cc1cnc[nH]1)NC(=O)CC[C@H](NC(=O)CC[C@H](NC(=O)CC[C@H](N)C(=O)O)C(=O)O)C(=O)O)C(=O)N[C@@H](CCC(N)=O)C(=O)N(CCCCN)CC(=O)N(CC(=O)N(CC(=O)N(CCCCN)CC(=O)N(CC(=O)N(CC(=O)N(CCCCN)CC(=O)N(CC(=O)N(CC(=O)N(CCCCN)CC(=O)N(CC(=O)N(CC(N)=O)[C@@H](C)c1ccccc1)[C@@H](C)c1ccccc1)[C@@H](C)c1ccccc1)[C@@H](C)c1ccccc1)[C@@H](C)c1ccccc1)[C@@H](C)c1ccccc1)[C@@H](C)c1ccccc1)[C@@H](C)c1ccccc1 ({γGlu-γGlu-γGlu}-HSSKLQ[Nlys][Nspe][Nspe][Nlys][Nspe][Nspe][Nlys][Nspe][Nspe][Nlys][Nspe][Nspe]-NH2) | 34 µM | 2 | 17 µM |
| C[C@@H](c1ccccc1)N(CC(N)=O)C(=O)CN(C(=O)CN(CCCCN)C(=O)CN(C(=O)CN(C(=O)CN(CCCCN)C(=O)CN(C(=O)CN(C(=O)CN(CCCCN)C(=O)CN(C(=O)CN(C(=O)CN(CCCCN)C(=O)CC[C@H](NC(=O)CC[C@H](NC(=O)CC[C@H](N)C(=O)O)C(=O)O)C(=O)O)[C@@H](C)c1ccccc1)[C@@H](C)c1ccccc1)[C@@H](C)c1ccccc1)[C@@H](C)c1ccccc1)[C@@H](C)c1ccccc1)[C@@H](C)c1ccccc1)[C@@H](C)c1ccccc1 ({γGlu-γGlu-γGlu}-[Nlys][Nspe][Nspe][Nlys][Nspe][Nspe][Nlys][Nspe][Nspe][Nlys][Nspe][Nspe]-NH2) | 17 µM | 1.1 | 15 µM |

From ChEMBL document CHEMBL3596184, “Prostate tumor specific peptide-peptoid hybrid prodrugs” (2015)
